# Experimental data reported in patent publication US6509003B2, “Reagents for the determination of cerebral regional acetylcholinesterase activity” (Daiichi Pure Chemicals Co., Ltd., priority 1997, dated 2003).
# Read-outs that look alike come from different tables or passages of the source.
# What was measured:
# AchE [1] = molecular target: T1, AchE (Rattus norvegicus, UniProt P37136); assay: hydrolysis of 14C-labeled compound in 20% rat brain cortex homogenate, radio TLC, with/without BW284c51; details: for specificity for AchE in hydrolysis reaction: 14C-labeled compound, from inhibition test with BW284c51
# Procedure: Rat brain cortex was processed into a 20% (w/v) homogenate by use of 0.9% NaCl-10 mM phosphate buffer (pH 7.4).
# central AchE [2] = molecular target: T2, central AchE (Rattus norvegicus, UniProt P37136); assay: radioactivity distribution in the rat brain by quantitative autoradiography after intravenous administration; details: 14C-labeled 13b, male white rat, i.v.
# T2 sequence (P37136 32-614): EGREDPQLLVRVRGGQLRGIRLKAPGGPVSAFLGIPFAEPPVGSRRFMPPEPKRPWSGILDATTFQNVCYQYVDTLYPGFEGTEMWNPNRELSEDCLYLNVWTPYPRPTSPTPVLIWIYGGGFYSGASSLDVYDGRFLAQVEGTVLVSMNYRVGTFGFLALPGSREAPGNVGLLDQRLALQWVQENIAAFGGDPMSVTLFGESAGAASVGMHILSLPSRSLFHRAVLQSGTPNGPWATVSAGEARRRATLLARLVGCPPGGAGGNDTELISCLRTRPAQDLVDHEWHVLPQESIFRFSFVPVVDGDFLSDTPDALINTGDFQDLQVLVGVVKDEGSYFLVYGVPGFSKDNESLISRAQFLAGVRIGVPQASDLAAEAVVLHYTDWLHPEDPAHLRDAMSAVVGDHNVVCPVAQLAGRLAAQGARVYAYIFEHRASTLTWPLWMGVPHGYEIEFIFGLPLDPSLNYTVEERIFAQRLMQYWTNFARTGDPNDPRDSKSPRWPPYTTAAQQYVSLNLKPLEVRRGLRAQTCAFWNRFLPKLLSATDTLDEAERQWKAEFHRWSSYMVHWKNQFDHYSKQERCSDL
# central AchE [3] = molecular target: T2, central AchE; assay: radioactivity distribution in the rat brain by dissection method after intravenous administration; assay type: in vivo; parameters: from tissue; host or cells: brain of living male rats (in vivo); details: male wistar rats, i.v.
# Procedure: After a geometrical isomer (50b) of compound No. 50 obtained in Example 8 (1) had been intravenously administered to groups of male wistar rats, radioactivity distribution in the rat brain was assayed by dissection method.
# AchE [4] = molecular target: T1, AchE; assay type: biochemical; parameters: Cerebral cortical tissues were obtained from rats, weighed and homogenized; from tissue; host or cells: rat cerebral cortex homogenate
# Procedure: Cerebral cortical tissues were obtained from rats, weighed and homogenized (90 mg tissue/ml) in 0.1 M phosphate buffer, pH7.4. […]
# central AchE [5] = molecular target: T2, central AchE; assay: radioactivity distribution in the rat brain by autoradiography after intravenous administration; assay type: in vivo; parameters: from tissue; host or cells: brain of living male rats (in vivo); details: male white rat, i.v.; for migration to the brain: 14C-labeled, autoradiography
# [6] = immediately after administration
# [7] = thirty minutes or more after administration
# [8] = fifteen minutes or more after administration
# [9] = thirty minutes after administration
compound,measurement,setting,value
"CC(=O)OC1CCN(C)CC1C(O)CC/C=C/I (single isomer, unassigned) [13a]",specificity for AchE in hydrolysis reaction,AchE [1]; rat brain cortex homogenate,80.4%
"CC(=O)OC1CCN(C)CC1C(O)CC/C=C/I (single isomer, unassigned) [13b]",specificity for AchE in hydrolysis reaction,AchE [1]; rat brain cortex homogenate,91.8%
same,reactivity and specificity for AchE (in words),AchE [1]; rat brain cortex homogenate,excellent reactivity and specificity for AchE
same,half-life,"AchE [1]; rat, 20% (w/v) brain cortex homogenate, pH 7.4, half-life of hydrolysis, 14C-labeled (N-methyl) compound, rat brain cortex homogenate, 37°C",~5 min
same,"radioactivity distribution, brain cortex",central AchE [2]; [6],high
same,"radioactivity distribution, corpus striatum",central AchE [2]; [6],low
same,"accumulation of radioactivity, cerebellum",central AchE [2]; [7],low accumulation of radioactivity
same,"accumulation of radioactivity, striatum",central AchE [2]; [7],high accumulation of radioactivity
"COCOC(CC/C=C/[123I])C1CN(C)CCC1OC(C)=O (single isomer, unassigned) [50b]","accumulation of radioactivity, cerebellum",central AchE [3]; [8],accumulation of radioactivity was low
same,"accumulation of radioactivity, striatum",central AchE [3]; [8],high accumulation of radioactivity
same,"radioactivity distribution, brain cortex",central AchE [3]; [6],high
same,"radioactivity distribution, striatum",central AchE [3]; [6],low
same,specificity for AchE,"AchE [4]; 123I-labeled compound, rat cerebral cortical homogenate, 37°C, from inhibition by BW284c51",88.6%
"C=CC[N+](C)(C)c1ccc(CCC(=O)CCc2ccc([N+](C)(C)CC=C)cc2)cc1.[Br-].[Br-] [BW284c51, reference compound]",hydrolysis on addition of BW284c51,AchE [1]; hydrolysis of 14C-labeled compound No. 13 in rat brain cortex homogenate,considerably inhibited
same,hydrolysis on addition of BW284c51,AchE [4]; hydrolysis of 123I-labeled 50b in rat cerebral cortical homogenate,considerably inhibited
"O.[14CH3]N1CCC(C(O)/C=C/I)C(O)C1 (stereo not drawn) [compound No. 46, N-^14C-methyl-3-hydroxy-4-(l-hydroxy-3-iodo-2-propenyl)piperidine]",migration to the brain,central AchE [5],hardly migrated to the brain
"CC(=O)OC1CN([14CH3])CCC1C(O)/C=C/I (stereo not shown) [compound No. 47, N-^14C-methyl-3-acetoxy-4-(1-hydroxy-3-iodo-2-propenyl)piperidine]",migration to the brain,central AchE [5],commonly migrated to the brain
same,"radioactivity distribution, brain cortex",central AchE [5]; 5 minutes after administration,high
same,"radioactivity distribution, cerebellum",central AchE [5]; 5 minutes after administration,low
same,"radioactivity distribution, corpus striatum",central AchE [5]; 5 minutes after administration,somewhat high
same,"accumulation of radioactivity, cerebellum",central AchE [5]; [9],low accumulation of radioactivity
same,"accumulation of radioactivity, corpus striatum",central AchE [5]; [9],high accumulation of radioactivity
